Experimental data published in patent US20090239858A1, “THERAPEUTIC AMIDES” (ALLERGAN, INC., priority 2008, published 2009).

Test system: lashes and adjacent hairs of patients
Assay: Eyelash and hair growth observed in glaucoma patients treated in one eye
Format: in vivo, human
Conditions: glaucoma patients treated in only one eye
Description: In the course of treating patients having glaucoma, treatment may only be appropriate in one eye. […] The lash appearance on the lids of the treated eyes would have appeared quite attractive if it represented a bilateral phenomenon. As a result of its asymmetric nature, the long lashes on one side could be construed as disturbing from a cosmetic standpoint. A systemic examination was preformed as a result of the asymmetric phenomenon. It soon became apparent that this altered appearance was not an isolated finding. […] Definite differences could be identified to varying degrees in the lashes and adjacent hairs of all patients who were taking the drug on a unilateral basis for longer than 6 months.
The changes in the lashes were apparent on gross inspection in several patients once attention was focused on the issue. In those with light colored hair and lashes, the differences were only seen easily with the aid of the high magnification and lighting capabilities of the slit lamp biomicroscope. In the course of glaucoma follow-up examination, attention is generally immediately focused on the eye itself. As a result of the high power magnification needed only one eye is seen at a time and the eye is seen at a high enough power that the lashes are not in focus. […]

CCNC(=O)CCC/C=C\C[C@@H]1[C@@H](/C=C/[C@@H](O)CCc2ccccc2)[C@H](O)C[C@@H]1O [bimatoprost]
lash appearance in treated eye versus non-treated eye: longer, thicker, and fuller
